Results taken from patent US20180368410A1, “MICROBIOCIDAL OXADIAZOLE DERIVATIVES” (SYNGENTA PARTICIPATIONS AG, priority 2015, published 2018).

Key:
[1] = tested on: Puccinia recondita f. Sp. Tritici; assay: Puccinia recondita f. sp. tritici / wheat / leaf disc preventative (brown rust); format: in vivo, Puccinia recondita f. sp. tritici on wheat cv. Kanzler; settings: foliar, 200 ppm in the applied formulation, inoculated 1 day after application, assessed 7 to 9 days after application, vs untreated control leaf disks, read-out: disease control
Description: Leaf disks or leaf segments of various plant species are cut from plants grown in a greenhouse. The cut leaf disks or segments are placed in multiwell plates (24-well format) onto water agar. The leaf disks are sprayed with a test solution before (preventative) or after (curative) inoculation. Compounds to be tested are prepared as DMSO solutions (max. 10 mg/ml) which are diluted to the appropriate concentration with 0.025% Tween20 just before spraying. The inoculated leaf disks or segments are incubated under defined conditions (temperature, relative humidity, light, etc.) according to the respective test system. A single evaluation of disease level is carried out 3 to 14 days after inoculation, depending on the pathosystem. Percent disease control relative to the untreated check leaf disks or segments is then calculated. Wheat leaf segments cv. Kanzler were placed on agar in multiwell plates (24-well format) and sprayed with the formulated test compound diluted in water. The leaf disks were inoculated with a spore suspension of the fungus 1 day after application. The inoculated leaf segments were incubated at 19′C and 75% relative humidity (rh) under a light regime of 12 hours light/12 hours darkness in a climate cabinet and the activity of a compound was assessed as percent disease control compared to untreated when an appropriate level of disease damage appears in untreated check leaf segments (7 to 9 days after application). The following compounds at 200 ppm in the applied formulation give at least 80% disease control in this test when compared to untreated control leaf disks under the same conditions, which show extensive disease development.

[2] = tested on: Puccinia recondita f. Sp. Triticil; assay: Puccinia recondita f. sp. tritici / wheat / leaf disc curative (brown rust); format: in vivo, Puccinia recondita f. sp. tritici on wheat cv. Kanzler; settings: foliar, 200 ppm in the applied formulation, applied 1 day after inoculation, assessed 6 to 8 days after application, vs untreated control leaf disks, read-out: disease control
Description: (§1) Leaf disks or leaf segments of various plant species are cut from plants grown in a greenhouse. The cut leaf disks or segments are placed in multiwell plates (24-well format) onto water agar. The leaf disks are sprayed with a test solution before (preventative) or after (curative) inoculation. Compounds to be tested are prepared as DMSO solutions (max. 10 mg/ml) which are diluted to the appropriate concentration with 0.025% Tween20 just before spraying. The inoculated leaf disks or segments are incubated under defined conditions (temperature, relative humidity, light, etc.) according to the respective test system. A single evaluation of disease level is carried out 3 to 14 days after inoculation, depending on the pathosystem. Percent disease control relative to the untreated check leaf disks or segments is then calculated.
Wheat leaf segments cv. Kanzler are placed on agar in multiwell plates (24-well format). The leaf segments are then inoculated with a spore suspension of the fungus. Plates were stored in darkness at 19° C. and 75% relative humidity. The formulated test compound diluted in water was applied 1 day after inoculation. The leaf segments were incubated at 19° C. and 75% relative humidity under a light regime of 12 hours light/12 hours darkness in a climate cabinet and the activity of a compound was assessed as percent disease control compared to untreated when an appropriate level of disease damage appears in untreated check leaf segments (6 to 8 days after application).
(§2) The following compounds at 200 ppm in the applied formulation give at least 80% disease control in this test when compared to untreated control leaf disks under the same conditions, which show extensive disease development.

Phakopsora pachyrhizi = Phakopsora pachyrhizi / soybean / leaf disc preventative (Asian soybean rust); format: in vivo, Phakopsora pachyrhizi on soybean; settings: foliar, 200 ppm in the applied formulation, inoculated one day after application, assessed 12 to 14 days after application, vs untreated control leaf disks, read-out: disease control
Description: as §1
Soybean leaf disks are placed on water agar in multiwell plates (24-well format) and sprayed with the formulated test compound diluted in water. One day after application leaf discs are inoculated by spraying a spore suspension on the lower leaf surface. After an incubation period in a climate cabinet of 24-36 hours in darkness at 20° C. and 75% rh leaf disc are kept at 20° C. with 12 h light/day and 75% rh. The activity of a compound is assessed as percent disease control compared to untreated when an appropriate level of disease damage appears in untreated check leaf disks (12 to 14 days after application).
as §2

[3] = tested on: Glomerella Lacenarium (Colletotrichum lacenarium); assay: Glomerella lagenarium (Colletotrichum lagenarium) liquid culture / cucumber / preventative (anthracnose); format: cell-based; settings: 20 ppm in the applied formulation, liquid culture in PDB, 24° C., inhibition of growth measured photometrically 3 to 4 days after application, vs untreated control, read-out: disease control
Description: Mycelia fragments or conidia suspensions of a fungus prepared either freshly from liquid cultures of the fungus or from cryogenic storage, are directly mixed into nutrient broth. DMSO solutions of the test compound (max. 10 mg/ml) are diluted with 0.025% Tween20 by a factor of 50 and 10 μl of this solution is pipetted into a microtiter plate (96-well format). The nutrient broth containing the fungal spores/mycelia fragments is then added to give an end concentration of the tested compound. The test plates are incubated in the dark at 24° C. and 96% relative humidity. The inhibition of fungal growth is determined photometrically after 2 to 7 days, depending on the pathosystem, and percent antifungal activity relative to the untreated check is calculated.
Conidia of the fungus from cryogenic storage are directly mixed into nutrient broth (PDB—potato dextrose broth). After placing a (DMSO) solution of test compound into a microtiter plate (96-well format), the nutrient broth containing the fungal spores is added. The test plates are incubated at 24° C. and the inhibition of growth is measured photometrically 3 to 4 days after application.
The following compounds at 20 ppm in the applied formulation give at least 80% disease control in this test when compared to untreated control under the same conditions, which show extensive disease development.

O=C(NCc1ccc(-c2noc(C(F)(F)F)n2)cc1F)C1CC1(F)F (stereo not shown) [Compound 1.61, 2,2-difluoro-N-[[2-fluoro-4-[5-(trifluoromethyl)-1,2,4-oxadiazol-3-yl]phenyl]methyl] cyclopropanecarboxamide]
≥ 80%: pest or weed control at 200 ppm [1] | pest or weed control at 200 ppm [2] | pest or weed control at 200 ppm (Phakopsora pachyrhizi) | inhibition of growth at 20 ppm [3]

CC1(C(=O)NCc2ccc(-c3noc(C(F)(F)F)n3)cc2)CC1 [Compound 1.25, 1-methyl-N-[[4-[5-(trifluoromethyl)-1,2,4-oxadiazol-3-yl]phenyl]methyl] cyclopropanecarboxamide]
≥ 80%: pest or weed control at 200 ppm [1] | pest or weed control at 200 ppm [2] | pest or weed control at 200 ppm (Phakopsora pachyrhizi) | inhibition of growth at 20 ppm [3]

O=C(NCc1ccc(-c2noc(C(F)(F)F)n2)c(F)c1F)C1CC1(F)F (stereo not shown) [Compound 1.72, N-[[2,3-difluoro-4-[5-(trifluoromethyl)-1,2,4-oxadiazol-3-yl]phenyl]methyl]-2,2-difluoro-cyclopropanecarboxamide]
≥ 80%: pest or weed control at 200 ppm [1] | pest or weed control at 200 ppm [2] | pest or weed control at 200 ppm (Phakopsora pachyrhizi) | inhibition of growth at 20 ppm [3]

O=C(NCCc1ccc(-c2noc(C(F)(F)F)n2)cc1)C1CCOC1 (stereo not shown) [Compound 1.100, N-[2-[4-[5-(trifluoromethyl)-1,2,4-oxadiazol-3-yl]phenyl]ethyl] tetrahydrofuran-3-carboxamide]
≥ 80%: pest or weed control at 200 ppm [1] | pest or weed control at 200 ppm [2] | pest or weed control at 200 ppm (Phakopsora pachyrhizi) | inhibition of growth at 20 ppm [3]

O=C(CC1CC1)NCc1ccc(-c2noc(C(F)(F)F)n2)cc1F [Compound 1.62, 2-cyclopropyl-N-[[2-fluoro-4-[5-(trifluoromethyl)-1,2,4-oxadiazol-3-yl]phenyl]methyl] acetamide]
≥ 80%: pest or weed control at 200 ppm [1] | pest or weed control at 200 ppm [2] | pest or weed control at 200 ppm (Phakopsora pachyrhizi) | inhibition of growth at 20 ppm [3]

CC1(C(=O)NCc2ccc(-c3noc(C(F)(F)F)n3)cc2)COC1 [Compound 1.54, 3-methyl-N-[[4-[5-(trifluoromethyl)-1,2,4-oxadiazol-3-yl]phenyl]methyl] oxetane-3-carboxamide]
≥ 80%: pest or weed control at 200 ppm [1] | pest or weed control at 200 ppm [2] | pest or weed control at 200 ppm (Phakopsora pachyrhizi) | inhibition of growth at 20 ppm [3]

O=C(CC1CC1)NCc1ccc(-c2noc(C(F)(F)F)n2)c(F)c1 [Compound 1.92, 2-cyclopropyl-N-[[3-fluoro-4-[5-(trifluoromethyl)-1,2,4-oxadiazol-3-yl]phenyl]methyl]acetamide]
≥ 80%: pest or weed control at 200 ppm [1] | pest or weed control at 200 ppm [2] | pest or weed control at 200 ppm (Phakopsora pachyrhizi) | inhibition of growth at 20 ppm [3]

O=C(CC1CC1)NCc1ccc(-c2noc(C(F)(F)F)n2)c(F)c1F [Compound 1.73, 2-cyclopropyl-N-[[2,3-difluoro-4-[5-(trifluoromethyl)-1,2,4-oxadiazol-3-yl]phenyl]methyl]acetamide]
≥ 80%: pest or weed control at 200 ppm [1] | pest or weed control at 200 ppm [2] | pest or weed control at 200 ppm (Phakopsora pachyrhizi) | inhibition of growth at 20 ppm [3]

O=C(NCc1ccc(-c2noc(C(F)(F)F)n2)c(F)c1)C1CC1(F)F (stereo not shown) [Compound 1.91, 2,2-difluoro-N-[[3-fluoro-4-[5-(trifluoromethyl)-1,2,4-oxadiazol-3-yl]phenyl]methyl] cyclopropanecarboxamide]
≥ 80%: pest or weed control at 200 ppm [1] | pest or weed control at 200 ppm [2] | pest or weed control at 200 ppm (Phakopsora pachyrhizi) | inhibition of growth at 20 ppm [3]

CC1CC1C(=O)NCc1ccc(-c2noc(C(F)(F)F)n2)cc1 (stereo not shown) [Compound 1.24, 2-methyl-N-[[4-[5-(trifluoromethyl)-1,2,4-oxadiazol-3-yl]phenyl]methyl] cyclopropanecarboxamide]
≥ 80%: pest or weed control at 200 ppm [1] | pest or weed control at 200 ppm [2] | pest or weed control at 200 ppm (Phakopsora pachyrhizi) | inhibition of growth at 20 ppm [3]
